pIC50: −log10 of the molar value. Where two headings read alike, the source gives them in different places.
What was measured:
[1] = target: T1, OX1 (Homo sapiens, UniProt O43613); experiment: Orexin receptor cell-based functional assay, [Ca2+]i by FLIPR, CHO-OX1 cells; settings: CHO-OX1 cells, EC90 of OXA
T1 construct: expressed in transfected cells; host or cells: CHO (CHO-OX1, kept under selection antibiotic)
T1 sequence (O43613 1-425): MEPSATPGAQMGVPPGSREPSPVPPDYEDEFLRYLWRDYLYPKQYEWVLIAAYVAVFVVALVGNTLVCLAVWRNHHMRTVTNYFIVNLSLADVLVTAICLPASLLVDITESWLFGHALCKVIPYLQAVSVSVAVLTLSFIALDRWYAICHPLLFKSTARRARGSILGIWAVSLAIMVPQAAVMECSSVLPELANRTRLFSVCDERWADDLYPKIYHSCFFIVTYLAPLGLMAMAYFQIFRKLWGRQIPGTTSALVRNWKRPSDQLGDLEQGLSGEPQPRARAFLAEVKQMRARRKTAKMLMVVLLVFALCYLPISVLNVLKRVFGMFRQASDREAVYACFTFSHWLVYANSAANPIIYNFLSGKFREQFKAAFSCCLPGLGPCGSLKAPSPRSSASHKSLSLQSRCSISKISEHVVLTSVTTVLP
In short: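 CHO cells expressing human OX1 or OX2 loaded with calcium dye plus 2.5 mM probenecid at 37° C (calcium4, 30 min, or calcium6, 2 h), then exposed to compounds (0.1 nM-10 μM) for 30 min. Intracellular Ca2+ measured on FLIPR; antagonist format.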

[2] = target: T2, OX2 (Homo sapiens, UniProt O43614); experiment: Orexin receptor cell-based functional assay, [Ca2+]i by FLIPR, CHO-OX2 cells
T2 construct: expressed in transfected cells; host or cells: CHO (CHO-OX2, kept under selection antibiotic)
T2 sequence (O43614 1-444): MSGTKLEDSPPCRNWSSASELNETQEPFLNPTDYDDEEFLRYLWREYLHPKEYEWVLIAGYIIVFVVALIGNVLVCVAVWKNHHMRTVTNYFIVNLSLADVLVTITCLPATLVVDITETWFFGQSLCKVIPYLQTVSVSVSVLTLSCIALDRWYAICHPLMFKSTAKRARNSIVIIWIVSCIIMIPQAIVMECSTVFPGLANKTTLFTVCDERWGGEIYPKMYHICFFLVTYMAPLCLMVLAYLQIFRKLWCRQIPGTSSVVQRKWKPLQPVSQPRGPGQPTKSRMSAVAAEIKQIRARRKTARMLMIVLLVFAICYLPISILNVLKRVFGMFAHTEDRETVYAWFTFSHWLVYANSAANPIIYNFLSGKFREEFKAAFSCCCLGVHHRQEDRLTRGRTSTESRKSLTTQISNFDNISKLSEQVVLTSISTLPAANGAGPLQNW
Description: Measurement of [Ca^2+]i using a FLIPR: CHO—OX1 or CHO—OX2 cells are seeded into black-walled clear-base 384-well plates (Costar) at a density of 20,000 cells per well in F12-K medium supplemented with 10% FBS and selection antibiotic (500 ug/ml G418 or 15 ug/ml Blasticidin) and cultured overnight. The cells are incubated with equal volume of calcium4 loading buffer (Molecular Devices, Inc.) containing 2.5 mM probenecid at 37° C. for 30 min, followed by putative OX1 or OX2 receptor antagonists (dose-range 0.1 nM-10 μM) for another 30 min.
The cells are incubated with equal volume of calcium6 loading buffer (Molecular Devices, Inc.) containing 2.5 mM probenecid at 37° C. for 2 h, followed by test compounds (dose-range 0.1 nM-10 μM) for another 30 min.

[3] = [Ca2+]i by FLIPR, antagonist dose-range 0.1 nM-10 μM, read-out: OX1
[4] = [Ca2+]i by FLIPR, antagonist dose-range 0.1 nM-10 μM, EC90 of OXA, read-out: OX2

pIC50 ([1]; Table 2, read-out: IC50 Bioactivity OX1)	pIC50 ([2]; Table 2, EC90 of OXA, read-out: IC50 Bioactivity OX2)	pIC50 [1, 3]	pIC50 [2, 4]	SMILES
8.52	6.30	–	–	Cc1ccc(-n2cccn2)c(C(=O)N2CCC[C@@H](C)[C@H]2CNc2ccc(C(F)(F)F)cn2)c1 (racemic) [Example 120, rac-cis-(3-Methyl-2-(((5-(trifluoromethyl)pyridin-2-yl)amino)methyl)piperidin-1-yl)(5-methyl-2-(1H-pyrazol-1-yl)phenyl)methanone]
–	–	6.60	5.47	Cc1ccc(-n2nccn2)c(C(=O)N2CC3CCCC3C2CNc2nc3cc(Cl)ccc3o2)c1 (stereo not shown) [Example A68, (1-(((5-Chlorobenzo[d]oxazol-2-yl)amino)methyl)hexahydrocyclopenta[c]pyrrol-2(1H)-yl)(5-methyl-2-(2H-1,2,3-triazol-2-yl)phenyl)methanone]
–	–	5.60	5.11	Cc1ccc(-c2cnn(C)c2)c(C(=O)N2CC3CCCC3C2CNc2nc3cc(Cl)ccc3o2)c1 (stereo not shown) [Example A70, (1-(((5-Chlorobenzo[d]oxazol-2-yl)amino)methyl)hexahydrocyclopenta[c]pyrrol-2(1H)-yl)(5-methyl-2-(1-methyl-1H-pyrazol-4-yl)phenyl)methanone]
–	–	5.62	5.41	Cc1ccc(-n2cnc(C(F)(F)F)n2)c(C(=O)N2CC3CCCC3C2CNc2nc3cc(Cl)ccc3o2)c1 (stereo not shown) [Example A72, (1-(((5-Chlorobenzo[d]oxazol-2-yl)amino)methyl)hexahydrocyclopenta[c]pyrrol-2(1H)-yl)(5-methyl-2-(3-(trifluoromethyl)-1H-1,2,4-triazol-1-yl)phenyl)methanone]
–	–	7.96	< 5.30	C[C@@H]1CCCN(C(=O)c2ccc(F)cc2-c2ncccn2)[C@@H]1CNc1ccc(C(F)(F)F)cn1 [Example A234, (4-Fluoro-2-(pyrimidin-2-yl)phenyl)((2S,3R)-3-methyl-2-(((5-(trifluoromethyl)pyridin-2-yl)amino)methyl)piperidin-1-yl)methanone]
–	–	7.92	5.62	C[C@@H]1CCCN(C(=O)c2ccc(F)cc2-c2ncccn2)[C@@H]1CNc1ncc(C(F)(F)F)cn1 [Example A235, (4-Fluoro-2-(pyrimidin-2-yl)phenyl)((2S,3R)-3-methyl-2-(((5-(trifluoromethyl)pyrimidin-2-yl)amino)methyl)piperidin-1-yl)methanone]
–	–	7.64	< 5.30	Cc1cccc(-n2nccn2)c1C(=O)N1CCC[C@@H](C)[C@H]1CNc1ncc(C(F)(F)F)cn1 [Example A264, ((2S,3R)-3-Methyl-2-(((5-(trifluoromethyl)pyrimidin-2-yl)amino)methyl)piperidin-1-yl)(2-methyl-6-(2H-1,2,3-triazol-2-yl)phenyl)methanone]
–	–	8.10	< 5.30	Cc1cccc(-n2nccn2)c1C(=O)N1CCC[C@@H](C)[C@H]1CNc1ccc(C(F)(F)F)cn1 [Example A265, ((2S,3R)-3-Methyl-2-(((5-(trifluoromethyl)pyridin-2-yl)amino)methyl)piperidin-1-yl)(2-methyl-6-(2H-1,2,3-triazol-2-yl)phenyl)methanone]
–	–	8.05	< 5.30	Cc1ccc(C(=O)N2CCC[C@@H](C)[C@H]2CNc2ccc(C(F)(F)F)cn2)c(-c2ncccn2)c1 [Example A305, ((2S,3R)-3-Methyl-2-(((5-(trifluoromethyl)pyridin-2-yl)amino)methyl)piperidin-1-yl)(4-methyl-2-(pyrimidin-2-yl)phenyl)methanone]
–	–	8.70	5.85	Cc1ccc(-c2ncccn2)c(C(=O)N2CCC[C@@H](C)[C@H]2CNc2ccc(C(F)(F)F)cn2)c1F [Example A320, (2-Fluoro-3-methyl-6-(pyrimidin-2-yl)phenyl)((2S,3R)-3-methyl-2-(((5-(trifluoromethyl)pyridin-2-yl)amino)methyl)piperidin-1-yl)methanone]
–	–	8.10	< 5.30	Cc1ccc(-c2ncccn2)c(C(=O)N2CCC[C@@H](C)[C@H]2CNc2ncc(C(F)(F)F)cn2)c1F [Example A321]
–	–	–	< 5.30	C[C@@H]1CCCN(C(=O)c2cc(F)cc(F)c2-n2nccn2)[C@@H]1CNc1ccc(C(F)(F)F)cn1 [Example A328, (3,5-Difluoro-2-(2H-1,2,3-triazol-2-yl)phenyl)((2S,3R)-3-methyl-2-(((5-(trifluoromethyl)pyridin-2-yl)amino)methyl)piperidin-1-yl)methanone]
–	–	8.70	< 5.30	Cc1ccc(C(=O)N2CCC[C@@H](C)[C@H]2CNc2ncc(C(F)(F)F)cn2)c(-c2ncccn2)c1 [Example A340, ((2S,3R)-3-Methyl-2-(((5-(trifluoromethyl)pyrimidin-2-yl)amino)methyl)piperidin-1-yl)(4-methyl-2-(pyrimidin-2-yl)phenyl)methanone]
–	–	8.40	5.82	Cc1ccc(F)c(C(=O)N2CCC[C@@H](C)[C@H]2CNc2ccc(C(F)(F)F)cn2)c1-n1nccn1 [Example A352, (6-Fluoro-3-methyl-2-(2H-1,2,3-triazol-2-yl)phenyl)((2S,3R)-3-methyl-2-(((5-(trifluoromethyl)pyridin-2-yl)amino)methyl)piperidin-1-yl)methanone]
–	–	8.40	< 5.30	Cc1ccc(F)c(C(=O)N2CCC[C@@H](C)[C@H]2CNc2ncc(C(F)(F)F)cn2)c1-n1nccn1 [Example A353, (6-fluoro-3-methyl-2-(2H-1,2,3-triazol-2-yl)phenyl)((2S,3R)-3-methyl-2-(((5-(trifluoromethyl)pyrimidin-2-yl)amino)methyl)piperidin-1-yl)methanone]
–	–	–	< 5.30	Cc1cc(-n2nccn2)c(C(=O)N2CCC[C@@H](C)[C@H]2CNc2ccc(C(F)(F)F)cn2)cc1F [Example A360, (5-Fluoro-4-methyl-2-(2H-1,2,3-triazol-2-yl)phenyl)((2S,3R)-3-methyl-2-(((5-(trifluoromethyl)pyridin-2-yl)amino)methyl)piperidin-1-yl)methanone]
–	–	8.40	< 5.30	Cc1cc(-n2nccn2)c(C(=O)N2CCC[C@@H](C)[C@H]2CNc2ncc(C(F)(F)F)cn2)cc1F [Example A361, (5-fluoro-4-methyl-2-(2H-1,2,3-triazol-2-yl)phenyl)((2S,3R)-3-methyl-2-(((5-(trifluoromethyl)pyrimidin-2-yl)amino)methyl)piperidin-1-yl)methanone]
–	–	7.62	< 5.30	Cc1c(F)ccc(-n2nccn2)c1C(=O)N1CCC[C@@H](C)[C@H]1CNc1ncc(C(F)(F)F)cn1 [Example A385, (3-fluoro-2-methyl-6-(2H-1,2,3-triazol-2-yl)phenyl)((2S,3R)-3-methyl-2-(((5-(trifluoromethyl)pyrimidin-2-yl)amino)methyl)piperidin-1-yl)methanone]
–	–	8.30	< 5.30	Cc1c(F)ccc(-c2ncccn2)c1C(=O)N1CCC[C@@H](C)[C@H]1CNc1ccc(C(F)(F)F)cn1 [Example A386, (3-fluoro-2-methyl-6-(pyrimidin-2-yl)phenyl)((2S,3R)-3-methyl-2-(((5-(trifluoromethyl)pyridin-2-yl)amino)methyl)piperidin-1-yl)methanone]
–	–	7.52	< 5.30	Cc1c(F)ccc(-c2ncccn2)c1C(=O)N1CCC[C@@H](C)[C@H]1CNc1ncc(C(F)(F)F)cn1 [Example A387, (3-fluoro-2-methyl-6-(pyrimidin-2-yl)phenyl)((2S,3R)-3-methyl-2-(((5-(trifluoromethyl)pyrimidin-2-yl)amino)methyl)piperidin-1-yl)methanone]
–	–	8.40	< 5.30	C[C@@H]1CCCN(C(=O)c2c(-c3ncccn3)ccc(F)c2F)[C@@H]1CNc1ccc(C(F)(F)F)cn1 [Example A388, (2,3-Difluoro-6-(pyrimidin-2-yl)phenyl)((2S,3R)-3-methyl-2-(((5-(trifluoromethyl)pyridin-2-yl)amino)methyl)piperidin-1-yl)methanone]
